From patent US20230085307A1, “PYRIDAZINONE COMPOUND AND HERBICIDE” (NISSAN CHEMICAL CORPORATION, priority 2019, published 2023)

Columns and labels:
redroot pigweed [1] = test: Test Example 4: herbicidal effect by soil treatment (Table 19, symbol N); assay type: in vivo, redroot pigweed (Amaranthus retroflexus); conditions: amount of applied herbicide 320 g/ha
How it was run: (§1)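 Step 1: sow seeds in sterilized diluvial soil, cover ~1.5 cm. Step 2: spray diluted emulsion onto soil surface at predetermined rate. Step 3: greenhouse, 25–30° C, three weeks. Step 4: grade effect on each plant by earlier criteria.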

green foxtail [2] = test: Test Example 5: herbicidal effect by foliage application, plastic box (Table 20, symbol G); assay type: in vivo, green foxtail (Setaria viridis); conditions: 320 g/ha, foliage application after 14-day growth, evaluated three weeks after application
How it was run: (§2)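 Foliar spray test: emulsion formulation diluted in water to a set application rate, sprayed onto 14-day-old plants raised in diluvial soil at 25° C to 30° C under glass. Both herbicidal effect and crop effect rated visually three weeks later.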

Italian ryegrass [3] = test: Test Example 4: herbicidal effect by soil treatment (Table 19, symbol K); assay type: in vivo, Italian ryegrass (Lolium multiflorum); conditions: amount of applied herbicide 320 g/ha
How it was run: as §1

southern crabgrass [4] = test: Test Example 5: herbicidal effect by foliage application, plastic box (Table 20, symbol F); assay type: in vivo, southern crabgrass (Digitaria ciliaris); conditions: 320 g/ha, foliage application after 14-day growth, evaluated three weeks after application
How it was run: as §2

southern crabgrass [5] = test: Test Example 4: herbicidal effect by soil treatment (Table 19, symbol F); assay type: in vivo, southern crabgrass (Digitaria ciliaris); conditions: amount of applied herbicide 320 g/ha
How it was run: as §1

Italian ryegrass [6] = test: Test Example 5: herbicidal effect by foliage application, plastic box (Table 20, symbol K); assay type: in vivo, Italian ryegrass (Lolium multiflorum); conditions: 320 g/ha, foliage application after 14-day growth, evaluated three weeks after application
How it was run: as §2

wild oat [7] = test: Test Example 5: herbicidal effect by foliage application, plastic box (Table 20, symbol I); assay type: in vivo, wild oat (Avena fatua); conditions: 320 g/ha, foliage application after 14-day growth, evaluated three weeks after application
How it was run: as §2

redroot pigweed [8] = test: Test Example 5: herbicidal effect by foliage application, plastic box (Table 20, symbol N); assay type: in vivo, redroot pigweed (Amaranthus retroflexus); conditions: 320 g/ha, foliage application after 14-day growth, evaluated three weeks after application
How it was run: as §2

oval-leafed pondweed = test: Test Example 1: herbicidal activity, application before weed generation under submerged conditions (Table 16, symbol C); assay type: in vivo, oval-leafed pondweed (Monochoria vaginalis); conditions: amount of applied herbicide 320 g/ha
How it was run: (§3)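 Submerged Wagner pots (alluvial soil, 4 cm water) sown with weed seeds and planted with 2.5-leaf rice seedlings; emulsifiable concentrate diluted in water applied to water surface on sowing day. Held in greenhouse at 25-30 °C; injury scored 0-5 by herbicidal rate after three weeks.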

persian speedwell [9] = test: Test Example 4: herbicidal effect by soil treatment (Table 19, symbol R); assay type: in vivo, Persian speedwell (Veronica persica); conditions: amount of applied herbicide 320 g/ha
How it was run: as §1

green foxtail [10] = test: Test Example 4: herbicidal effect by soil treatment (Table 19, symbol G); assay type: in vivo, green foxtail (Setaria viridis); conditions: amount of applied herbicide 320 g/ha
How it was run: as §1

blackgrass [11] = test: Test Example 5: herbicidal effect by foliage application, plastic box (Table 20, symbol J); assay type: in vivo, blackgrass (Alopecurus myosuroides); conditions: 320 g/ha, foliage application after 14-day growth, evaluated three weeks after application
How it was run: as §2

rice flat sedge = test: Test Example 3: herbicidal effect by foliage application, Wagner pot (Table 18, symbol E); assay type: in vivo, rice flat sedge (Cyperus iria); conditions: 320 g/ha
How it was run: (§4)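 Plants were sown in alluvial soil held under 0.1–0.5 cm standing water and grown 14 days in a greenhouse at 25–30 °C. An emulsifiable formulation, water-diluted to the set dose, was then sprayed onto the foliage, and effects were scored three weeks later using previously defined criteria.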

persian speedwell [12] = test: Test Example 5: herbicidal effect by foliage application, plastic box (Table 20, symbol R); assay type: in vivo, Persian speedwell (Veronica persica); conditions: 320 g/ha, foliage application after 14-day growth, evaluated three weeks after application
How it was run: as §2

velvetleaf [13] = test: Test Example 4: herbicidal effect by soil treatment (Table 19, symbol M); assay type: in vivo, velvetleaf (Abutilon theophrasti); conditions: amount of applied herbicide 320 g/ha
How it was run: as §1

barnyard grass [14] = test: Test Example 5: herbicidal effect by foliage application, plastic box (Table 20, symbol H); assay type: in vivo, barnyard grass (Echinochloa crus-galli); conditions: 320 g/ha, foliage application after 14-day growth, evaluated three weeks after application
How it was run: as §2

late watergrass = test: Test Example 1: herbicidal activity, application before weed generation under submerged conditions (Table 16, symbol A); assay type: in vivo, late watergrass (Echinochloa oryzicola); conditions: amount of applied herbicide 320 g/ha
How it was run: as §3

blackgrass [15] = test: Test Example 4: herbicidal effect by soil treatment (Table 19, symbol J); assay type: in vivo, blackgrass (Alopecurus myosuroides); conditions: amount of applied herbicide 320 g/ha
How it was run: as §1

lambsquarters [16] = test: Test Example 4: herbicidal effect by soil treatment (Table 19, symbol O); assay type: in vivo, lambsquarters (Chenopodium album); conditions: amount of applied herbicide 320 g/ha
How it was run: as §1

windgrass [17] = test: Test Example 4: herbicidal effect by soil treatment (Table 19, symbol L); assay type: in vivo, windgrass (Apera spica-venti); conditions: amount of applied herbicide 320 g/ha
How it was run: as §1

windgrass [18] = test: Test Example 5: herbicidal effect by foliage application, plastic box (Table 20, symbol L); assay type: in vivo, windgrass (Apera spica-venti); conditions: 320 g/ha, foliage application after 14-day growth, evaluated three weeks after application
How it was run: as §2

velvetleaf [19] = test: Test Example 5: herbicidal effect by foliage application, plastic box (Table 20, symbol M); assay type: in vivo, velvetleaf (Abutilon theophrasti); conditions: 320 g/ha, foliage application after 14-day growth, evaluated three weeks after application
How it was run: as §2

barnyard grass [20] = test: Test Example 3: herbicidal effect by foliage application, Wagner pot (Table 18, symbol H); assay type: in vivo, barnyard grass (Echinochloa crus-galli); conditions: 320 g/ha
How it was run: as §4

Chinese sprangletop = test: Test Example 3: herbicidal effect by foliage application, Wagner pot (Table 18, symbol D); assay type: in vivo, chinese sprangletop (Leptochloa chinensis); conditions: 320 g/ha
How it was run: as §4

chickweed [21] = test: Test Example 4: herbicidal effect by soil treatment (Table 19, symbol P); assay type: in vivo, common chickweed (Stellaria media); conditions: amount of applied herbicide 320 g/ha
How it was run: as §1

Japanese bulrush = test: Test Example 1: herbicidal activity, application before weed generation under submerged conditions (Table 16, symbol B); assay type: in vivo, Japanese bulrush (Schoenoplectus juncoides); conditions: amount of applied herbicide 320 g/ha
How it was run: as §3

wild oat [22] = test: Test Example 4: herbicidal effect by soil treatment (Table 19, symbol I); assay type: in vivo, wild oat (Avena fatua); conditions: amount of applied herbicide 320 g/ha
How it was run: as §1

lambsquarters [23] = test: Test Example 5: herbicidal effect by foliage application, plastic box (Table 20, symbol O); assay type: in vivo, lambsquarters (Chenopodium album); conditions: 320 g/ha, foliage application after 14-day growth, evaluated three weeks after application
How it was run: as §2

chickweed [24] = test: Test Example 5: herbicidal effect by foliage application, plastic box (Table 20, symbol P); assay type: in vivo, common chickweed (Stellaria media); conditions: 320 g/ha, foliage application after 14-day growth, evaluated three weeks after application
How it was run: as §2

barnyard grass [25] = test: Test Example 4: herbicidal effect by soil treatment (Table 19, symbol H); assay type: in vivo, barnyard grass (Echinochloa crus-galli); conditions: amount of applied herbicide 320 g/ha
How it was run: as §1

CCCOc1ccc(-c2sc3c(F)cccc3c2-c2c(O)c(C)nn(C)c2=O)cc1 [4-009]
Herbicidal effect by soil treatment, N: redroot pigweed (redroot pigweed [1]): 5 (Herbicidal rate of 90% or more (almost completely withered)) | herbicidal effect on G: green foxtail (evaluation grade 0-5) (green foxtail [2]): 2 (Herbicidal rate of 20% or more and less than 40%) | Herbicidal effect by soil treatment, K: Italian ryegrass (Italian ryegrass [3]): 0 (Herbicidal rate of 5% or less (almost no effect)) | herbicidal effect on F: southern crabgrass (evaluation grade 0-5) (southern crabgrass [4]): 3 (Herbicidal rate of 40% or more and less than 70%) | Herbicidal effect by soil treatment, F: southern crabgrass (southern crabgrass [5]): 0 (Herbicidal rate of 5% or less (almost no effect)) | herbicidal effect on K: Italian ryegrass (evaluation grade 0-5) (Italian ryegrass [6]): 4 (Herbicidal rate of 70% or more and less than 90%) | herbicidal effect on I: wild oat (evaluation grade 0-5) (wild oat [7]): 0 (Herbicidal rate of 5% or less (almost no effect)) | herbicidal effect on N: redroot pigweed (evaluation grade 0-5) (redroot pigweed [8]): 5 (Herbicidal rate of 90% or more (almost completely withered)) | Herbicidal effect, C: oval-leafed pondweed (oval-leafed pondweed): 0 (Herbicidal rate of 5% or less (almost no effect)) | Herbicidal effect by soil treatment, R: persian speedwell (persian speedwell [9]): 4 (Herbicidal rate of 70% or more and less than 90%) | Herbicidal effect by soil treatment, G: green foxtail (green foxtail [10]): 0 (Herbicidal rate of 5% or less (almost no effect)) | herbicidal effect on J: blackgrass (evaluation grade 0-5) (blackgrass [11]): 4 (Herbicidal rate of 70% or more and less than 90%) | herbicidal effect on rice flat sedge (E) (rice flat sedge): 5 (Herbicidal rate of 90% or more (almost completely withered)) | herbicidal effect on R: persian speedwell (evaluation grade 0-5) (persian speedwell [12]): 5 (Herbicidal rate of 90% or more (almost completely withered)) | Herbicidal effect by soil treatment, M: velvetleaf (velvetleaf [13]): 0 (Herbicidal rate of 5% or less (almost no effect)) | herbicidal effect on H: barnyard grass (evaluation grade 0-5) (barnyard grass [14]): 5 (Herbicidal rate of 90% or more (almost completely withered)) | Herbicidal effect, A: late watergrass (late watergrass): 2 (Herbicidal rate of 20% or more and less than 40%) | Herbicidal effect by soil treatment, J: blackgrass (blackgrass [15]): 0 (Herbicidal rate of 5% or less (almost no effect)) | Herbicidal effect by soil treatment, O: lambsquarters (lambsquarters [16]): 3 (Herbicidal rate of 40% or more and less than 70%) | Herbicidal effect by soil treatment, L: windgrass (windgrass [17]): 0 (Herbicidal rate of 5% or less (almost no effect)) | herbicidal effect on L: windgrass (evaluation grade 0-5) (windgrass [18]): 4 (Herbicidal rate of 70% or more and less than 90%) | herbicidal effect on M: velvetleaf (evaluation grade 0-5) (velvetleaf [19]): 3 (Herbicidal rate of 40% or more and less than 70%) | herbicidal effect on barnyard grass (H) (barnyard grass [20]): 5 (Herbicidal rate of 90% or more (almost completely withered)) | herbicidal effect on Chinese sprangletop (D) (Chinese sprangletop): 3 (Herbicidal rate of 40% or more and less than 70%) | Herbicidal effect by soil treatment, P: chickweed (chickweed [21]): 4 (Herbicidal rate of 70% or more and less than 90%) | Herbicidal effect, B: Japanese bulrush (Japanese bulrush): 1 (Herbicidal rate of 5% or more and less than 20%) | Herbicidal effect by soil treatment, I: wild oat (wild oat [22]): 0 (Herbicidal rate of 5% or less (almost no effect)) | herbicidal effect on O: lambsquarters (evaluation grade 0-5) (lambsquarters [23]): 4 (Herbicidal rate of 70% or more and less than 90%) | herbicidal effect on P: chickweed (evaluation grade 0-5) (chickweed [24]): 5 (Herbicidal rate of 90% or more (almost completely withered)) | Herbicidal effect by soil treatment, H: barnyard grass (barnyard grass [25]): 0 (Herbicidal rate of 5% or less (almost no effect))
